ChEMBL document CHEMBL4715709, “Synthesis and evaluation of anticonvulsant properties of new N-Mannich bases derived from 3-(1-phenylethyl)- and 3-benzyl-pyrrolidine-2,5-dione” (Bioorg Med Chem Lett, 2016)
Active and inactive are the calls of the source. No cut-off for these calls is given here.

Key:
[1] = test system: Mus musculus; assay: Anticonvulsant activity in mouse assessed as protection against ScPTZ-induced epilepsy at 300 mg/kg, ip measured after 4 hrs by subcutaneous pentylenetetrazole test; format: functional, organism-based
[2] = Neurotoxicity in mouse assessed as induction of motor impairment at 300 mg/kg, ip measured after 4 hrs by rotarod test; format: toxicity, organism-based; details: in vivo
[3] = Neurotoxicity in mouse assessed as induction of motor impairment at 300 mg/kg, ip measured after 0.5 hrs by rotarod test; format: toxicity, organism-based; details: in vivo
[4] = test system: Mus musculus; assay: Anticonvulsant activity in mouse assessed as protection against tonic-clonic seizures at 300 mg/kg, ip measured after 4 hrs by maximal electroshock seizure test; format: functional, organism-based
[5] = test system: Mus musculus; assay: Anticonvulsant activity in mouse assessed as protection against ScPTZ-induced epilepsy at 300 mg/kg, ip measured after 0.5 hrs by subcutaneous pentylenetetrazole test; format: functional, organism-based
[6] = test system: Mus musculus; assay: Anticonvulsant activity in mouse assessed as protection against tonic-clonic seizures at 300 mg/kg, ip measured after 0.5 hrs by maximal electroshock seizure test; format: functional, organism-based
[7] = test system: Mus musculus; assay: Anticonvulsant activity in ip dosed mouse assessed as minimum dose required for protection against ScPTZ-induced epilepsy measured after 4 hrs by subcutaneous pentylenetetrazole test; format: functional
[8] = test system: Mus musculus; assay: Anticonvulsant activity in ip dosed mouse assessed as minimum dose required for protection against tonic-clonic seizures measured after 4 hrs by maximal electroshock seizure test; format: functional
[9] = test system: Mus musculus; assay: Anti-convulsant activity in mouse assessed as protection of animals against psychomotor seizures at 100 mg/kg, ip measured after 4 hrs by 6 Hz limbic seizure test; format: functional
[10] = Neurotoxicity in ip dosed mouse assessed as minimum dose required for induction of motor impairment measured after 0.5 hrs by rotarod test; format: toxicity, organism-based; details: in vivo
[11] = Neurotoxicity activity in ip dosed mouse assessed as induction of motor impairment by rotarod test; format: toxicity, organism-based; details: in vivo
[12] = Protection index, ratio of TD50 for neurotoxicity in ip dosed mouse to ED50 for anticonvulsant activity in ip dosed mouse measured after 0.5 hrs by 6 Hz limbic seizure test; format: toxicity, organism-based; details: in vivo, read-out: PI
[13] = test system: Mus musculus; assay: Anti-convulsant activity in mouse assessed as protection of animals against psychomotor seizures at 100 mg/kg, ip measured after 0.5 hrs by 6 Hz limbic seizure test; format: functional
[14] = test system: Mus musculus; assay: Anti-convulsant activity in ip dosed mouse assessed as protection against psychomotor seizures measured after 0.5 hrs by 6 Hz limbic seizure test; format: functional
[15] = test system: Mus musculus; assay: Anticonvulsant activity in ip dosed mouse assessed as minimum dose required for protection against tonic-clonic seizures measured after 0.5 hrs by maximal electroshock seizure test; format: functional
[16] = test system: Mus musculus; assay: Anticonvulsant activity in ip dosed mouse assessed as minimum dose required for protection against ScPTZ-induced epilepsy measured after 0.5 hrs by subcutaneous pentylenetetrazole test; format: functional

COc1cccc(N2CCN(CN3C(=O)CC(C(C)c4ccccc4)C3=O)CC2)c1 (stereo not drawn)
Activity [1]: inactive | Activity [2]: Non-Toxic | Activity [3]: Non-Toxic | Activity [4]: inactive | Activity [5]: inactive | Activity [6]: inactive

CC(c1ccccc1)C1CC(=O)N(CN2CCN(c3cccc(Cl)c3Cl)CC2)C1=O (stereo not drawn)
Activity [1]: inactive | Activity [2]: Non-Toxic | Activity [3]: Non-Toxic | Activity [4]: inactive | Activity [5]: inactive | Activity [6]: inactive

CC(c1ccccc1)C1CC(=O)N(CN2CCN(c3ccc(Cl)c(Cl)c3)CC2)C1=O (stereo not drawn)
Activity [1]: inactive | Activity [2]: Non-Toxic | Activity [3]: Non-Toxic | Activity [4]: inactive | Activity [5]: inactive | Activity [6]: inactive

O=C1CC(Cc2ccccc2)C(=O)N1CN1CCC(Cc2ccccc2)CC1 (stereo not drawn)
Activity [1]: inactive | Activity [2]: Non-Toxic | Activity [3]: Non-Toxic | Activity [4]: inactive | Activity [5]: inactive | Activity [6]: inactive

CC(c1ccccc1)C1CC(=O)N(CN2CCN(c3ccccc3)CC2)C1=O (stereo not drawn)
Activity [1]: inactive | Activity [2]: Non-Toxic | Activity [3]: Non-Toxic | Activity [4]: inactive | Activity [5]: inactive | Activity [6]: inactive

CC(c1ccccc1)C1CC(=O)N(CN2CCN(c3ccccc3Cl)CC2)C1=O (stereo not drawn)
Activity [1]: inactive | Activity [2]: Non-Toxic | Activity [3]: Non-Toxic | Activity [4]: inactive | Activity [5]: inactive | Activity [6]: inactive

O=C1CC(Cc2ccccc2)C(=O)N1CN1CCN(C2CCCCC2)CC1 (stereo not drawn)
Activity [1]: inactive | Activity [2]: Non-Toxic | Activity [3]: Non-Toxic | Activity [4]: inactive | Activity [5]: inactive | Activity [6]: inactive

CC(c1ccccc1)C1CC(=O)N(CN2CCN(c3ccccc3F)CC2)C1=O (stereo not drawn)
Activity [1]: inactive | Activity [2]: Non-Toxic | Activity [3]: Non-Toxic | Activity [4]: inactive | Activity [5]: inactive | Activity [6]: inactive

COc1cccc(N2CCN(CN3C(=O)CC(Cc4ccccc4)C3=O)CC2)c1 (stereo not drawn)
Activity [1]: inactive | Activity [2]: Non-Toxic | Activity [3]: Non-Toxic | Activity [4]: inactive | Activity [5]: inactive | Activity [6]: inactive

CC(c1ccccc1)C1CC(=O)N(CN2CCN(c3ccc(F)cc3)CC2)C1=O (stereo not drawn)
Activity [1]: inactive | Activity [2]: Non-Toxic | Activity [3]: Non-Toxic | Activity [4]: inactive | Activity [5]: inactive | Activity [6]: inactive

CC(c1ccccc1)C1CC(=O)N(CN2CCN(Cc3ccccc3)CC2)C1=O (stereo not drawn)
Activity [1]: inactive | Activity [2]: Non-Toxic | Activity [3]: Non-Toxic | Activity [4]: inactive | Activity [5]: inactive | Activity [6]: inactive

O=C1CC(Cc2ccccc2)C(=O)N1CN1CCN(c2cccc(Cl)c2Cl)CC1 (stereo not drawn)
Activity [1]: inactive | Activity [2]: Non-Toxic | Activity [3]: Non-Toxic | Activity [4]: inactive | Activity [5]: inactive | Activity [6]: inactive

Cc1ccccc1N1CCN(CN2C(=O)CC(C(C)c3ccccc3)C2=O)CC1 (stereo not drawn)
Activity [1]: inactive | Activity [2]: Non-Toxic | Activity [3]: Non-Toxic | Activity [4]: inactive | Activity [5]: inactive | Activity [6]: inactive

Cl.O=C1CC(Cc2ccccc2)C(=O)N1CN1CCN(Cc2ccccc2)CC1 (racemic)
MED=>50 [7]: 100 mg/kg | Activity [2]: Non-Toxic | Activity [3]: Non-Toxic | Activity [4]: inactive | Activity [5]: inactive | Activity [6]: inactive

CC(c1ccccc1)C1CC(=O)N(CN2CCC(Cc3ccccc3)CC2)C1=O (racemic)
Activity [1]: inactive | Activity [2]: Non-Toxic | Activity [3]: Non-Toxic | Activity [5]: inactive | Activity [6]: inactive | MED=>50 [8]: 300 mg/kg

CC(c1ccccc1)C1CC(=O)N(CN2CCN(c3cccc(C(F)(F)F)c3)CC2)C1=O (racemic)
Activity [1]: inactive | Activity [2]: Non-Toxic | Activity [3]: Non-Toxic | Activity [5]: inactive | Activity [6]: inactive | MED=>50 [8]: 300 mg/kg

Cc1ccccc1N1CCN(CN2C(=O)CC(Cc3ccccc3)C2=O)CC1 (racemic)
Activity [1]: inactive | Activity [2]: Non-Toxic | Activity [3]: Non-Toxic | Activity [4]: inactive | Activity [5]: inactive | Activity [6]: inactive

Cl.O=C1CC(Cc2ccccc2)C(=O)N1CN1CCN(CCO)CC1 (racemic)
Activity [9]: 0% | MTD50 [10]: 300 mg/kg | MED=>50 [7]: 300 mg/kg | TD50 [11]: 344 mg/kg | Activity [2]: Non-Toxic | selectivity ratio at 0.5 h [12]: 4.85 | Activity [4]: inactive | Activity [13]: 100% | Activity [5]: inactive | ED50 [14]: 71 mg/kg | minimum effective dose [15]: 300 mg/kg

O=C1CC(Cc2ccccc2)C(=O)N1CN1CCN(c2ccccc2F)CC1 (racemic)
MTD50 [10]: 300 mg/kg | MED=>50 [7]: 300 mg/kg | Activity [2]: Non-Toxic | Activity [4]: inactive | Activity [5]: inactive | Activity [6]: inactive

CC(c1ccccc1)C1CC(=O)N(CN2CCN(c3ccc(Cl)cc3)CC2)C1=O (racemic)
MED=>50 [7]: 300 mg/kg | MED=>50 [16]: 300 mg/kg | Activity [2]: Non-Toxic | Activity [3]: Non-Toxic | Activity [4]: inactive | Activity [6]: inactive

CC(c1ccccc1)C1CC(=O)N(CN2CCN(c3ncccn3)CC2)C1=O (racemic)
MTD50 [10]: 300 mg/kg | MED=>50 [7]: 300 mg/kg | Activity [2]: Non-Toxic | Activity [4]: inactive | Activity [5]: inactive | Activity [6]: inactive

O=C1CC(Cc2ccccc2)C(=O)N1CN1CCN(c2cccc(C(F)(F)F)c2)CC1 (racemic)
Activity [1]: inactive | MTD50 [10]: 300 mg/kg | Activity [2]: Non-Toxic | Activity [5]: inactive | minimum effective dose [15]: 300 mg/kg | MED=>50 [8]: 300 mg/kg

COc1ccccc1N1CCN(CN2C(=O)CC(Cc3ccccc3)C2=O)CC1 (racemic)
Activity [1]: inactive | MTD50 [10]: 300 mg/kg | MED=>50 [16]: 100 mg/kg | Activity [2]: Non-Toxic | Activity [4]: inactive | Activity [6]: inactive

Cc1cccc(N2CCN(CN3C(=O)CC(Cc4ccccc4)C3=O)CC2)c1 (racemic)
MTD50 [10]: 300 mg/kg | MED=>50 [7]: 100 mg/kg | Activity [2]: Non-Toxic | Activity [4]: inactive | Activity [5]: inactive | minimum effective dose [15]: 300 mg/kg

O=C1CC(Cc2ccccc2)C(=O)N1CN1CCN(c2ccccc2Cl)CC1 (racemic)
MED=>50 [7]: 100 mg/kg | Activity [2]: Non-Toxic | Activity [3]: Non-Toxic | Activity [4]: inactive | Activity [5]: inactive | Activity [6]: inactive

O=C1CC(Cc2ccccc2)C(=O)N1CN1CCN(c2cccc(Cl)c2)CC1 (racemic)
Activity [1]: inactive | MTD50 [10]: 300 mg/kg | Activity [2]: Non-Toxic | Activity [4]: inactive | Activity [5]: inactive | Activity [6]: inactive

O=C1CC(Cc2ccccc2)C(=O)N1CN1CCN(c2ccccc2)CC1 (racemic)
Activity [1]: inactive | MTD50 [10]: 300 mg/kg | Activity [2]: Non-Toxic | Activity [4]: inactive | Activity [5]: inactive | Activity [6]: inactive

CC(c1ccccc1)C1CC(=O)N(CN2CCOCC2)C1=O (racemic)
Activity [1]: inactive | MTD50 [10]: 300 mg/kg | Activity [2]: Non-Toxic | Activity [5]: inactive | minimum effective dose [15]: 300 mg/kg | MED=>50 [8]: 300 mg/kg

Cc1cccc(N2CCN(CN3C(=O)CC(C(C)c4ccccc4)C3=O)CC2)c1 (racemic)
Activity [1]: inactive | MTD50 [10]: 300 mg/kg | Activity [2]: Non-Toxic | Activity [4]: inactive | Activity [5]: inactive | Activity [6]: inactive

CC(c1ccccc1)C1CC(=O)N(CN2CCN(c3cccc(Cl)c3)CC2)C1=O (racemic)
Activity [1]: inactive | MTD50 [10]: 300 mg/kg | Activity [2]: Non-Toxic | Activity [4]: inactive | Activity [5]: inactive | Activity [6]: inactive

COC[C@@H](NC(C)=O)C(=O)NCc1ccccc1 [LACOSAMIDE]
selectivity ratio at 0.5 h [12]: 5.66 | ED50 [14]: 6 mg/kg

CC[C@@H](C(N)=O)N1CCCC1=O [LEVETIRACETAM]
TD50 [11]: > 500 mg/kg
